The supplement of paper PMC11208160

Test: recombinant UMI read abundance after kanamycin selection (control-corrected) (log10(CPM+1)); higher = more efficient recombination; extreme values may be limits of the assay; sequences stand for … in AGTGCAGAGAAAATCGGCCAGTTTTCTCTGCCTGCAGTCCGCATGCCGTGGGACCCCTTGGGTTCTAACCTGTTGCCTAGATTTATGCAGCGGACTGCCTTTCTCCCAAAGTGATAAACCGG…AGGTTGGTTTCACT; site = the 11-nt donor
Protocol: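 Pooled E. coli donor-specificity screen for the IS621 bridge recombinase. Each library member carries a reprogrammed 11-nt donor and a full-length LE bridge RNA expressed in cis from the natural promoter, with a paired donor-binding loop (8-nt LDG + 4-nt RDG) and a target-binding loop fixed to T5. It is co-electroporated with a T5 target plasmid; recombinase is induced with 0.07 mM IPTG and recombinants are selected on kanamycin. UMIs are counted as CPM, averaged over two biological replicates and corrected by the unselected control. Molecule = full bridge RNA written as DNA, built from the T5 scaffold: LDG = donor specificity nt 1-8, RDG = reverse complement of nt 8-11.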
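Note: IS621 bridge recombinase in Escherichia coli cells against a fixed T5 target plasmid.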

| Sequence | recombinant UMI read abundance (log10) |
| --- | --- |
| ACACATCCATGGACCGGTTTTCCCGGTAATCCGTATTTGAC (site ACACATCCTTT) | 0.421 |
| ACACATCCATGGACCGGTTTTCCCGGTAATCCGTATTTGAC (site ACACATGCTGT) | 0 |
| ACACATCCATGGACCGGTTTTCCCGGTAATCCGTATTTGAC (site ACACATTCTGT) | 0.87 |
| ACACATCCATGGACCGGTTTTCCCGGTAATCCGTATTTGAC (site ACACCTCCTGT) | 0.91 |
| ACACATCCATGGACCGGTTTTCCCGGTAATCCGTATTTGAC (site ACACGTCCTGT) | 0.84 |
| ACACATCCATGGACCGGTTTTCCCGGTAATCCGTATTTGAC (site ACACTTCCTGT) | 0 |
| ACACATCCATGGACCGGTTTTCCCGGTAATCCGTATTTGAC (site ACAGATCCTGT) | 0 |
| ACACATCCATGGACCGGTTTTCCCGGTAATCCGTATTTGAC (site ACATATCCTGT) | 0.818 |
| ACACATCCATGGACCGGTTTTCCCGGTAATCCGTATTTGAC (site ACCCATCCTGT) | 0 |
| ACACATCCATGGACCGGTTTTCCCGGTAATCCGTATTTGAC (site ACGCATCCTGT) | 0 |
| ACACATCCATGGACCGGTTTTCCCGGTAATCCGTATTTGAC (site ACTCATCCTGT) | 0 |
| ACACATCCATGGACCGGTTTTCCCGGTAATCCGTATTTGAC (site AGACATCCTGT) | 0 |
| ACACATCCATGGACCGGTTTTCCCGGTAATCCGTATTTGAC (site ATACATCCTGT) | 0 |
| ACACATCCATGGACCGGTTTTCCCGGTAATCCGTATTTGAC (site CCACATCCTGT) | 0.581 |
| ACACATCCATGGACCGGTTTTCCCGGTAATCCGTATTTGAC (site GCACATCCTGT) | 0 |
| ACACATCCATGGACCGGTTTTCCCGGTAATCCGTATTTGAC (site TCACATCCTGT) | 0.538 |
| ACACATCCATGGACCGGTTTTCCCGGTAATCCGTATTTGGC (site ACACATCCTGA) | 0 |
| ACACATCCATGGACCGGTTTTCCCGGTAATCCGTATTTGGC (site ACACATCCTGC) | 1.5 |
| ACACATCCATGGACCGGTTTTCCCGGTAATCCGTATTTGGC (site ACACATCCTGG) | 0 |
| ACACATCCATGGACCGGTTTTCCCGGTAATCCGTATTTGGC (site ACACATCCTGT) | 1.19 |
| ACACCATCATGGACCGGTTTTCCCGGTAATCCGTATTTGAG (site ACACCATCTCT) | 1.25 |
| ACACCATCATGGACCGGTTTTCCCGGTAATCCGTATTTGCA (site ACACCATCTTG) | 2.8 |
| ACACCATCATGGACCGGTTTTCCCGGTAATCCGTATTTGCA (site ACAGTATCTTG) | 1.21 |
| ACACCCTCATGGACCGGTTTTCCCGGTAATCCGTATTTGAC (site ACACCCTCTGT) | 3.42 |

| Sequence | recombinant UMI read abundance (log10) |
| --- | --- |
| ACACCGTCATGGACCGGTTTTCCCGGTAATCCGTATTTGCC (site ACACCGTCTGG) | 3.04 |
| ACACGAACATGGACCGGTTTTCCCGGTAATCCGTATTTGGC (site ACACGAACTGA) | 1.19 |
| ACACGAACATGGACCGGTTTTCCCGGTAATCCGTATTTGGC (site ACACGAACTGC) | 2.77 |
| ACACGAACATGGACCGGTTTTCCCGGTAATCCGTATTTGGC (site ACACGAACTGG) | 0 |
| ACACGAACATGGACCGGTTTTCCCGGTAATCCGTATTTGGC (site ACACGAACTGT) | 1.93 |
| ACACGAACATGGACCGGTTTTCCCGGTAATCCGTATTTGTA (site ACACGAACTAA) | 0.0114 |
| ACACGAACATGGACCGGTTTTCCCGGTAATCCGTATTTGTA (site ACACGAACTCA) | 0.747 |
| ACACGAACATGGACCGGTTTTCCCGGTAATCCGTATTTGTA (site ACACGAACTGA) | 1.52 |
| ACACGAACATGGACCGGTTTTCCCGGTAATCCGTATTTGTA (site ACACGAACTTA) | 2.52 |
| ACACGATCATGGACCGGTTTTCCCGGTAATCCGTATTTGTC (site ACACGAACTGA) | 0.373 |
| ACACGATCATGGACCGGTTTTCCCGGTAATCCGTATTTGTC (site ACACGACCTGA) | 0 |
| ACACGATCATGGACCGGTTTTCCCGGTAATCCGTATTTGTC (site ACACGAGCTGA) | 0 |
| ACACGATCATGGACCGGTTTTCCCGGTAATCCGTATTTGTC (site ACACGATCTGA) | 2.46 |
| ACACGTCCATGGACCGGTTTTCCCGGTAATCCGTATTTGAC (site ACACATCCTGT) | 0 |
| ACACGTCCATGGACCGGTTTTCCCGGTAATCCGTATTTGAC (site ACACCTCCTGT) | 0 |
| ACACGTCCATGGACCGGTTTTCCCGGTAATCCGTATTTGAC (site ACACGTCCTGT) | 0.959 |
| ACACGTCCATGGACCGGTTTTCCCGGTAATCCGTATTTGAC (site ACACTTCCTGT) | 0 |
| ACACTAACATGGACCGGTTTTCCCGGTAATCCGTATTTGTC (site ACACAAACTGA) | 0 |
| ACACTAACATGGACCGGTTTTCCCGGTAATCCGTATTTGTC (site ACACCAACTGA) | 0.94 |
| ACACTAACATGGACCGGTTTTCCCGGTAATCCGTATTTGTC (site ACACGAACTGA) | 0 |
| ACACTAACATGGACCGGTTTTCCCGGTAATCCGTATTTGTC (site ACACTAACTGA) | 2.12 |
| ACACTATCATGGACCGGTTTTCCCGGTAATCCGTATTTGTA (site ACACTATCTTA) | 2.98 |
| ACACTATCATGGACCGGTTTTCCCGGTAATCCGTATTTGTA (site ACAGTATCTTG) | 0 |
| ACACTTACATGGACCGGTTTTCCCGGTAATCCGTATTTGTT (site ACACTTACTAA) | 0.147 |

| Sequence | recombinant UMI read abundance (log10) |
| --- | --- |
| ACACTTTCATGGACCGGTTTTCCCGGTAATCCGTATTTGCA (site ACACTTTCTTG) | 2.82 |
| ACACTTTCATGGACCGGTTTTCCCGGTAATCCGTATTTGCA (site ACAGTATCTTG) | 1.19 |
| ACAGAATCATGGACCGGTTTTCCCGGTAATCCGTATTTGCA (site ACAGAATCTTG) | 2.9 |
| ACAGAATCATGGACCGGTTTTCCCGGTAATCCGTATTTGCA (site ACAGCATCTTG) | 2.64 |
| ACAGAATCATGGACCGGTTTTCCCGGTAATCCGTATTTGCA (site ACAGGATCTTG) | 2.45 |
| ACAGAATCATGGACCGGTTTTCCCGGTAATCCGTATTTGCA (site ACAGTATCTTG) | 1.8 |
| ACAGACTCATGGACCGGTTTTCCCGGTAATCCGTATTTGCA (site ACAGACTCTTG) | 2.44 |
| ACAGACTCATGGACCGGTTTTCCCGGTAATCCGTATTTGCA (site ACAGTATCTTG) | 0 |
| ACAGAGGCATGGACCGGTTTTCCCGGTAATCCGTATTTGTG (site ACAGAGGCTCA) | 1.14 |
| ACAGGATCATGGACCGGTTTTCCCGGTAATCCGTATTTGCA (site ACAGAATCTTG) | 2.47 |
| ACAGGATCATGGACCGGTTTTCCCGGTAATCCGTATTTGCA (site ACAGCATCTTG) | 2.01 |
| ACAGGATCATGGACCGGTTTTCCCGGTAATCCGTATTTGCA (site ACAGGATCTTG) | 1.77 |
| ACAGGATCATGGACCGGTTTTCCCGGTAATCCGTATTTGCA (site ACAGTATCTTG) | 2.38 |
| ACAGTAACATGGACCGGTTTTCCCGGTAATCCGTATTTGCT (site ACAGTAACTAG) | 2.7 |
| ACAGTAACATGGACCGGTTTTCCCGGTAATCCGTATTTGCT (site ACAGTATCTTG) | 0.994 |
| ACAGTACCATGGACCGGTTTTCCCGGTAATCCGTATTTGCA (site ACAGTAACTTG) | 0 |
| ACAGTACCATGGACCGGTTTTCCCGGTAATCCGTATTTGCA (site ACAGTACCTTG) | 0.00459 |
| ACAGTACCATGGACCGGTTTTCCCGGTAATCCGTATTTGCA (site ACAGTAGCTTG) | 0.138 |
| ACAGTACCATGGACCGGTTTTCCCGGTAATCCGTATTTGCA (site ACAGTATCTTG) | 1.71 |
| ACAGTAGCATGGACCGGTTTTCCCGGTAATCCGTATTTGCG (site ACAGTAGCTCG) | 2.42 |
| ACAGTAGCATGGACCGGTTTTCCCGGTAATCCGTATTTGCG (site ACAGTATCTTG) | 0.736 |
| ACAGTATCATGGACCGGTTTTCCCGGTAATCCGTATTTGAA (site ACAGTATCTTA) | 2.34 |
| ACAGTATCATGGACCGGTTTTCCCGGTAATCCGTATTTGAA (site ACAGTATCTTC) | 1.73 |
| ACAGTATCATGGACCGGTTTTCCCGGTAATCCGTATTTGAA (site ACAGTATCTTG) | 0.829 |
